Data reported in patent US10059717B2, “Urea compounds containing 3,4-dihydropyrimido[4,5-D]pyrimidin-2(1H)-one skeleton as protein kinase inhibitors” (KOREA INSTITUTE OF SCIENCE AND TECHNOLOGY, priority 2016, dated 2018).

Tests used:
Test in all cases: Kinase panel biochemical assay
Conditions in all cases: 1 μM single concentration, read-out: % residual enzyme activity
EPHA5 = EPHA5 (Homo sapiens, UniProt P54756)
Procedure: (§1) In order to measure the protein kinase inhibitory activity (% inhibition) of the compounds of the present invention, biochemical assays were performed on the full kinase panel listed in the following Table 1.
(§2) As an test compound, 1-(3-(7-((6-(4-ethylpiperazine-1-carbonyl)pyridin-3-yl)amino)-1-methyl-2-oxo-1,4-dihydropyrimido[4,5-d]pyrimidin-3(2H)-yl)-4-methylphenyl)-3-(2-methoxyphenyl)urea (Compound No. 14) was used. The kinase inhibitory efficacy was measured upon treatment with a 1 μM single concentration of the test compound to calculate % residual enzyme activity value.
(§3) ABL1, FGFR2, TAOK2/TAO1, EPHA5, EPHB2, EPHB3, RET, LYN B, EPHA2, FRK/PTK5, EPHA8, LCK, EPHB4, FYN, KHS/MAP4K5, DDR1, EPHA3, P38a/MAPK14, EPHA4, FMS, EPHB1, HCK, FGFR1, ABL2/ARG, EPHA6, c-Src, ACK1, FLT4NEGFR3, ERBB4/HER4, DDR2, KDRNEGFR2, LYN, ZAK/MLTK, YES/YES1, BLK, FGR, MLCK2/MYLK2, TAOK1, BMX/ETK, BTK, EPHA1, JAK1, P38b/MAPK11, TIE2/TEK, FLT1NEGFR1, TXK, SRMS, RAF1, SIK1, MLK3/MAP3K11, PEAK1, TRKA, EPHA7, GLK/MAP4K3, MLK2/MAP3K10, TEC, CSK, TRKC, FES/FPS, SIK2, FGFR3, BRK, YSK4/MAP3K19, ARAF, PDGFRb, TNK1, GCK/MAP4K2, PDGFRa, TNIK, TAK1, ERBB2/HER2, LIMK1, HIPK4, FER, EGFR, JAK2, HPK1/MAP4K1, TRKB, RIPK3, LOK/STK10, LIMK2, MLK1/MAP3K9, BRAF, MEKK3, MEK5, STK32B/YANK2, FGFR4, MEKK2, SLK/STK2, FLT3, PKAcg, TAOK3/JIK, TYRO3/SKY, SIK3, IR, LRRK2, PYK2, NEK11, p70S6K/RPS6KB1, LATS2.

JAK1 = JAK1 (Homo sapiens, UniProt P23458)
Procedure: as §1, §2, §3

EPHA3 = EPHA3 (Homo sapiens, UniProt P29320)
Procedure: as §1, §2, §3

PYK2 = PYK2 (Homo sapiens, UniProt Q14289)
Procedure: as §1, §2, §3

TAOK3/JIK = TAOK3/JIK (Homo sapiens, UniProt Q9H2K8)
Procedure: as §1, §2, §3

EPHB4 = EPHB4 (Homo sapiens, UniProt P54760)
Procedure: as §1, §2, §3

CSK = CSK (Homo sapiens, UniProt P41240)
Procedure: as §1, §2, §3

MLK3/MAP3K11 = MLK3/MAP3K11 (Homo sapiens, UniProt Q16584)
Procedure: as §1, §2, §3

LATS2 = LATS2 (Homo sapiens, UniProt Q9NRM7)
LATS2, sequence (Q9NRM7 whole entry, species assumed): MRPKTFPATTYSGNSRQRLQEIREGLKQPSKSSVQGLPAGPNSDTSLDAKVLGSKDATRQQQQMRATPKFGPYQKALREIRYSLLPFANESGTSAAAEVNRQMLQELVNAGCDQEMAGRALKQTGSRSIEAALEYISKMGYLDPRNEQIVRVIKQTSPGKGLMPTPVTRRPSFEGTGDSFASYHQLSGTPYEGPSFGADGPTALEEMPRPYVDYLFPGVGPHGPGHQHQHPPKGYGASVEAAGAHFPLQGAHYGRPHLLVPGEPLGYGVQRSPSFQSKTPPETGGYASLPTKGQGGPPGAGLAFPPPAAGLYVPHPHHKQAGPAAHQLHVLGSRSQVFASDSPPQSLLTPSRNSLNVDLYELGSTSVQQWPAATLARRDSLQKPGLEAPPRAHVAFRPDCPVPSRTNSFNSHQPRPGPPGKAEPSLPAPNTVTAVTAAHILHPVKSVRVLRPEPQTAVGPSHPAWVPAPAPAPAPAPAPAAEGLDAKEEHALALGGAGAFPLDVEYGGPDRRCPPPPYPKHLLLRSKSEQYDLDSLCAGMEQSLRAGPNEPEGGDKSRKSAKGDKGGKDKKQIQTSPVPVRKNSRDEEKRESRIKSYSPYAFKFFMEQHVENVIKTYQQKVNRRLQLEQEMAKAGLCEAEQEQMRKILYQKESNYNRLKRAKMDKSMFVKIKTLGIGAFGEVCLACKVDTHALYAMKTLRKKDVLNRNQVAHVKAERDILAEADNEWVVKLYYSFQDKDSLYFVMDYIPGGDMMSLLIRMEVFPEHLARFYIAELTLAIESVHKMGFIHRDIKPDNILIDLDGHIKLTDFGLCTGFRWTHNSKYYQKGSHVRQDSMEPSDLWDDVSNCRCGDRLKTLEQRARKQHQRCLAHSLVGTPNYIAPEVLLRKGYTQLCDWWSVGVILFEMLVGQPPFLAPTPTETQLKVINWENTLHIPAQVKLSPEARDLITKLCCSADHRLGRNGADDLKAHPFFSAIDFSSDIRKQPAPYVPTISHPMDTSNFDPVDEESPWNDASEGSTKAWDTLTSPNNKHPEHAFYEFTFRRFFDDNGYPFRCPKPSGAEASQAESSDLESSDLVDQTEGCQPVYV
Procedure: as §1, §2, §3

RET = RET (Homo sapiens, UniProt P07949)
Procedure: as §1, §2, §3

FGFR1 = FGFR1 (Homo sapiens, UniProt P11362)
Procedure: as §1, §2, §3

TIE2/TEK = TIE2/TEK (Homo sapiens, UniProt Q02763)
TIE2/TEK, sequence (Q02763 23-1124): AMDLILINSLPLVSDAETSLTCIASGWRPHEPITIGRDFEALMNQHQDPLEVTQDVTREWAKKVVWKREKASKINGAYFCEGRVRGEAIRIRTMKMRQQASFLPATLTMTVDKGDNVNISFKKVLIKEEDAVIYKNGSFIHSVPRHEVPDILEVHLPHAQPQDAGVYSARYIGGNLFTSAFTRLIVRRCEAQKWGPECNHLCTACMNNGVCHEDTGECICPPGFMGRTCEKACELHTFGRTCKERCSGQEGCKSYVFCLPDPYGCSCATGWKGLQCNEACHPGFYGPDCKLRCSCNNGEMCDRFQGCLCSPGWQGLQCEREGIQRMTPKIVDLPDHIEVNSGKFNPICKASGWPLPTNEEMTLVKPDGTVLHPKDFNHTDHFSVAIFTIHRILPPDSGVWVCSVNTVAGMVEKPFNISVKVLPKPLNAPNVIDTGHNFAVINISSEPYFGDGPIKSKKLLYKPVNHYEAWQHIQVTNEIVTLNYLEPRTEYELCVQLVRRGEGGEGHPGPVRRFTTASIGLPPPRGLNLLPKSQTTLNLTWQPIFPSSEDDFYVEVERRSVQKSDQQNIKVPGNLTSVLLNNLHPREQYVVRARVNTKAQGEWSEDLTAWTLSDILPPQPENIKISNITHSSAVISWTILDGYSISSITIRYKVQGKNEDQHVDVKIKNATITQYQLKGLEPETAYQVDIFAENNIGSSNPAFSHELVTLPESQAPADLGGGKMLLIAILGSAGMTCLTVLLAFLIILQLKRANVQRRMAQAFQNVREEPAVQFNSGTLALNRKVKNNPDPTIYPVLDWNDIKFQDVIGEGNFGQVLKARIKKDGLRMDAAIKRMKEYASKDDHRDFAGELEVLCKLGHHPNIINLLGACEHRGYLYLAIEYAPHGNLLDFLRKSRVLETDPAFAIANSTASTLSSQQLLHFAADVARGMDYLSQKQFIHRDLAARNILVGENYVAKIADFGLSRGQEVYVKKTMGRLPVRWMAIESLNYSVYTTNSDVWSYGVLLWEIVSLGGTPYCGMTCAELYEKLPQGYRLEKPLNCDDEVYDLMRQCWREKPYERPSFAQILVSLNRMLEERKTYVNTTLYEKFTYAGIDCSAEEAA
Procedure: as §1, §2, §3

P38b/MAPK11 = P38b/MAPK11 (Homo sapiens, UniProt Q15759)
P38b/MAPK11, sequence (Q15759 whole entry): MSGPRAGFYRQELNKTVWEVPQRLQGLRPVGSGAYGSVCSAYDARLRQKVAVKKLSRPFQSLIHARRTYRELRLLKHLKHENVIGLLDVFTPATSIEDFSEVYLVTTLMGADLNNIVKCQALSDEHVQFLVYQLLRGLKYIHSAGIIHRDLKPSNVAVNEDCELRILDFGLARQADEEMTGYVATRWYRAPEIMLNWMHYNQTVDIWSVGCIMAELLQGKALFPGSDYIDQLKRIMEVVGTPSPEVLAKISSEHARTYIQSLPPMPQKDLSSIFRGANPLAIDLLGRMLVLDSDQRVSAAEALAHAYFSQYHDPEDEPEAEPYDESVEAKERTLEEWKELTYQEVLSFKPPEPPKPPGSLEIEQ
Procedure: as §1, §2, §3

ARAF = ARAF (Homo sapiens, UniProt P10398)
Procedure: as §1, §2, §3

LIMK1 = LIMK1 (Homo sapiens, UniProt P53667)
Procedure: as §1, §2, §3

DDR1 = DDR1 (Homo sapiens, UniProt Q08345)
Procedure: as §1, §2, §3

EPHA6 = EPHA6 (Homo sapiens, UniProt Q9UF33)
Procedure: as §1, §2, §3

JAK2 = JAK2 (Homo sapiens, UniProt O60674)
JAK2, sequence (O60674 whole entry): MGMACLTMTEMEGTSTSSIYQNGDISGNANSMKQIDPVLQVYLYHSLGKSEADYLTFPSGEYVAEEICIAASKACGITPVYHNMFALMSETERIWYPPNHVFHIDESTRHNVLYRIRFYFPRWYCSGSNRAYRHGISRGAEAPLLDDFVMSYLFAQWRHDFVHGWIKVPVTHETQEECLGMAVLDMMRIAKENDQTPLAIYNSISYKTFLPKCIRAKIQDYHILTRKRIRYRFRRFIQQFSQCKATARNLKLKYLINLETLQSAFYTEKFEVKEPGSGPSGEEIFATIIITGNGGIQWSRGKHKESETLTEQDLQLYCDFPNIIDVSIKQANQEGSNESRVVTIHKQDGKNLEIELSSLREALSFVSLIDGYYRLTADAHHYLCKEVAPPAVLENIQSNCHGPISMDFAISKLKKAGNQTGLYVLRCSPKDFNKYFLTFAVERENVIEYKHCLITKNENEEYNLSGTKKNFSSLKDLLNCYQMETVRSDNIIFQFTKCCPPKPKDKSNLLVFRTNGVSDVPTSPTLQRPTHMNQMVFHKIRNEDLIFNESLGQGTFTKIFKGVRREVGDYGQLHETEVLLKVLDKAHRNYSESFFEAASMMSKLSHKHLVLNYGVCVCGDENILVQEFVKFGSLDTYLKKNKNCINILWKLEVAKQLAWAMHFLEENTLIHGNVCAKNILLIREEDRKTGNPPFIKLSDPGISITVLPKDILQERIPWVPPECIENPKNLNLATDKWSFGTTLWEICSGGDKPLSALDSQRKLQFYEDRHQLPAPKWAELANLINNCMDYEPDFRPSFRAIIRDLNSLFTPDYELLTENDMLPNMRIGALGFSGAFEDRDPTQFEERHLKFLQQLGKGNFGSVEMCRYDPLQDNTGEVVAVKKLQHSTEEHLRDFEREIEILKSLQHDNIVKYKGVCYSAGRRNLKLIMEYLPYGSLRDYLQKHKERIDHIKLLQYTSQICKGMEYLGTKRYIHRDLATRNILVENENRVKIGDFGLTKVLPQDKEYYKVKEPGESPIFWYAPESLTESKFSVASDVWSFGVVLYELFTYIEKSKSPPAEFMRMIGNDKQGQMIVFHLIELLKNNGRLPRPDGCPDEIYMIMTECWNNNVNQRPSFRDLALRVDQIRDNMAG
Procedure: as §1, §2, §3

LRRK2 = LRRK2 (Homo sapiens, UniProt Q5S007)
Procedure: as §1, §2, §3

BRK = BRK (Homo sapiens, UniProt Q13882)
Procedure: as §1, §2, §3

GCK/MAP4K2 = GCK/MAP4K2 (Homo sapiens, UniProt Q12851)
Procedure: as §1, §2, §3

EPHB3 = EPHB3 (Homo sapiens, UniProt P54753)
Procedure: as §1, §2, §3

TAOK1 = TAOK1 (Homo sapiens, UniProt Q7L7X3)
Procedure: as §1, §2, §3

PKAcg = PKAcg (Homo sapiens, UniProt P22612)
Procedure: as §1, §2, §3

GLK/MAP4K3 = GLK/MAP4K3 (Homo sapiens, UniProt Q8IVH8)
Procedure: as §1, §2, §3

EPHA7 = EPHA7 (Homo sapiens, UniProt Q15375)
Procedure: as §1, §2, §3

LOK/STK10 = LOK/STK10 (Homo sapiens, UniProt O94804)
Procedure: as §1, §2, §3

FGFR4 = FGFR4 (Homo sapiens, UniProt P22455)
Procedure: as §1, §2, §3

TAK1 = TAK1 (Homo sapiens, UniProt O43318)
TAK1, sequence (O43318 1-303 limits assumed): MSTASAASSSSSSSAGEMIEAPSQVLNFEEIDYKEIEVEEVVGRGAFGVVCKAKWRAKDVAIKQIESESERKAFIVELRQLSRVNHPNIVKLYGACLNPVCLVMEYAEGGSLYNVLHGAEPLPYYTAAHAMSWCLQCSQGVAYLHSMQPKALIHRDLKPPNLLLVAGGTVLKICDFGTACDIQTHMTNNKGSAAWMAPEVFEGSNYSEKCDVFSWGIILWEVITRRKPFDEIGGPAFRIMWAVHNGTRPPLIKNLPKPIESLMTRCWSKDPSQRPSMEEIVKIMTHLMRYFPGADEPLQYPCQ
Procedure: as §1, §2, §3

SRMS = SRMS (Homo sapiens, UniProt Q9H3Y6)
Procedure: as §1, §2, §3

ERBB4/HER4 = ERBB4/HER4 (Homo sapiens, UniProt Q15303)
Procedure: as §1, §2, §3

EPHA5, sequence (P54756 25-1037): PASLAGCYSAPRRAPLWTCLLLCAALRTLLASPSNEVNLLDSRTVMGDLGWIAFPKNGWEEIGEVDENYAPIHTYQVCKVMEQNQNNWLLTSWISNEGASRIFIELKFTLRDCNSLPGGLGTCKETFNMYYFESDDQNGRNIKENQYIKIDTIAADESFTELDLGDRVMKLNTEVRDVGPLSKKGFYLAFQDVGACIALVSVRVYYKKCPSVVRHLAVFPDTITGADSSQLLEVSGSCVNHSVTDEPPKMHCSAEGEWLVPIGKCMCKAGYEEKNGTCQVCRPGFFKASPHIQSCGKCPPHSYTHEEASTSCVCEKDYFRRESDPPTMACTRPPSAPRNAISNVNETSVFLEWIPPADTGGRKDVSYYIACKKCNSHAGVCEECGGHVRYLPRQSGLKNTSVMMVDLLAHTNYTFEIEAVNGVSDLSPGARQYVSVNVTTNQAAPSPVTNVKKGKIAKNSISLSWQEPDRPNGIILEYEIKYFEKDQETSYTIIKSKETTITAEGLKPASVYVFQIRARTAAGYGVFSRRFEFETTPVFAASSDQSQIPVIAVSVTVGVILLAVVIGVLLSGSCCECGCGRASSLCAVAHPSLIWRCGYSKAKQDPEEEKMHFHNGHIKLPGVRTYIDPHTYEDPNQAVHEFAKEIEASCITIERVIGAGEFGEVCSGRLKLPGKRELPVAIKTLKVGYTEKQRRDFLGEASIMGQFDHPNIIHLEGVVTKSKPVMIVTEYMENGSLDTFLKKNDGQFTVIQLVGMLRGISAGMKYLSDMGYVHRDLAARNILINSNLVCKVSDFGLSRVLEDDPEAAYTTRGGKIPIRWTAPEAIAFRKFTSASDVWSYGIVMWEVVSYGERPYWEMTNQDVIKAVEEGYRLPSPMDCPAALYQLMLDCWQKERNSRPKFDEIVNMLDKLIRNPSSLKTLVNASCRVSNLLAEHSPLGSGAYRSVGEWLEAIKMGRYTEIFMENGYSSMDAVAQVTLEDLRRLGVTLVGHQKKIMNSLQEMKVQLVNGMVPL

- remaining activity at 1 µM (EPHA5): ≤ 30%
- remaining activity at 1 µM (JAK1): ≤ 30%
- remaining activity at 1 µM (EPHA3): ≤ 30%
- remaining activity at 1 µM (PYK2): ≤ 30%
- remaining activity at 1 µM (TAOK3/JIK): ≤ 30%
- remaining activity at 1 µM (EPHB4): ≤ 30%
- remaining activity at 1 µM (CSK): ≤ 30%
- remaining activity at 1 µM (MLK3/MAP3K11): ≤ 30%
- remaining activity at 1 µM (LATS2): ≤ 30%
- remaining activity at 1 µM (RET): ≤ 30%
- remaining activity at 1 µM (FGFR1): ≤ 30%
- remaining activity at 1 µM (TIE2/TEK): ≤ 30%
- remaining activity at 1 µM (P38b/MAPK11): ≤ 30%
- remaining activity at 1 µM (ARAF): ≤ 30%
- remaining activity at 1 µM (LIMK1): ≤ 30%
- remaining activity at 1 µM (DDR1): ≤ 30%
- remaining activity at 1 µM (EPHA6): ≤ 30%
- remaining activity at 1 µM (JAK2): ≤ 30%
- remaining activity at 1 µM (LRRK2): ≤ 30%
- remaining activity at 1 µM (BRK): ≤ 30%
- remaining activity at 1 µM (GCK/MAP4K2): ≤ 30%
- remaining activity at 1 µM (EPHB3): ≤ 30%
- remaining activity at 1 µM (TAOK1): ≤ 30%
- remaining activity at 1 µM (PKAcg): ≤ 30%
- remaining activity at 1 µM (GLK/MAP4K3): ≤ 30%
- remaining activity at 1 µM (EPHA7): ≤ 30%
- remaining activity at 1 µM (LOK/STK10): ≤ 30%
- remaining activity at 1 µM (FGFR4): ≤ 30%
- remaining activity at 1 µM (TAK1): ≤ 30%
- remaining activity at 1 µM (SRMS): ≤ 30%
- remaining activity at 1 µM (ERBB4/HER4): ≤ 30%
SMILES: CCN1CCN(C(=O)c2ccc(Nc3ncc4c(n3)N(C)C(=O)N(c3cc(NC(=O)Nc5ccccc5OC)ccc3C)C4)cn2)CC1 [Compound No. 14, 1-(3-(7-((6-(4-ethylpiperazin-1-carbonyl)pyridin-3-yl)amino)-1-methyl-2-oxo-1,4-dihydropyrimido[4,5-d]pyrimidin-3(2H)-yl)-4-methylphenyl)-3-(2-methoxyphenyl)urea]
